From patent US20080311168A1, “PROCESS FOR COMBATING ACARIDS” (RHODIA CHIMIE, priority 2002, published 2008)

Experiments:
dust mites [1] = assay: Curative test: ZnS powder deposited on fitted carpet holding an existing acarid population, Example 14; format: in vivo, dermatophagoides pteronyssinus
Protocol: (§1) The object of this study is to evaluate the effectiveness of a powder intended to be applied to floor coverings in a curative and/or preventive treatment for combating populations of dust mites.
(§2) This characterization is carried out in the same laboratory which carried out the test of Example 12. The source of the acarids is identical.
(§3) The test comprises two parts: • a curative test by deposition of the product on an existing population of acarids, • a preventive test with deposition of acarids on surfaces of fitted carpets treated beforehand with the product.
(§4) Monitoring is carried out over a period of at least two cycles, i.e. 6 weeks, and in comparison with a population not subjected to the product.
(§5) The experimental method is derived from the experimental context of the AFNOR standard NF G 39-011.
(§6) The experimental unit is composed of a chamber with a diameter of 8 cm which is escapeproof with regard to the acarids but which allows ventilation and in which are found: • a piece of short-pile polyamide fitted carpet as floor • 5 g of nutrient medium (dust+skin scales) • the corresponding dose of the test powder.
• approximately 50 active acarids are placed on the fitted carpets • the test product is mixed with the food and sprinkled with a salt cellar over the fitted carpet containing the acarids • 4 repetitions are carried out on the same day as experimental factor, including for the control batches composed of the same device but without the product • the product is applied at a rate of 160 mg/m^2 • 2 counts of the populations of acarids are carried out after incubating for 4 and 6 weeks under optimum development conditions.
(§7) • the product is mixed with the food and sprinkled with a salt cellar over pieces of acarid-free fitted carpets • one month later, approximately 50 active acarids are placed on the treated fitted carpets • 4 repetitions are carried out as experimental factor, including for the control batches composed of the same device but without the product (same control as for the curative test) • the product is applied at the rate of 10, 40, 80 and 160 mg/m^2 • counting of the population of acarids is carried out after incubating for 6 weeks under optimum development conditions. The monitorings consist in counting the number of living acarids after the time period of 4 or 6 weeks of incubation. The method of counting the acarids and the calculation of the coefficient of regulation of the population of acarids (CP) are identical to Example 12.
(§8) The population counts on controlled and treated are all carried out at the same number of weeks.

dust mites [2] = assay: Preventive test: acarids deposited on fitted carpet treated beforehand with ZnS powder, Example 14; format: in vivo, dermatophagoides pteronyssinus
Protocol: as §1, §2, §3, §4, §5, §6, §7, §8

[3] = test system: dust mites (dermatophagoides pteronyssinus); assay: Regulation of a dust mite population by powders (derived from AFNOR NF G 39-011), Example 12; format: in vivo; settings: for Number of living acarids after 6 weeks, Mean: 5 g test powder + 5 g nutrient medium (food 1/NF G 39-011), 50 acarids placed, 4 repetitions; for CP (coefficient of regulation of the population of acarids), Mean: 6 weeks, versus sample without additive, 5 g test powder + 5 g nutrient medium, 0 = ineffective, 100 = eradication
Protocol: This characterization is carried out by a laboratory registered by the French Ministry of Agriculture, Fisheries and Food. The object is to evaluate the effectiveness of PA powders, to which ZnS may or may not have been added, on the regulation of the change in a population of dust mites (dermatophagoides pteronyssinus). Monitoring is carried out over two development cycles of the acarids, i.e. 6 weeks.
The acarids used originate from a laboratory strain raised on a substrate composed of a 50/50 (w/w) mixture of wheatgerm and of brewers yeast as specks graded by sieving (fragments of less than 1 mm). The temperature is between 23 and 25° C. and the relative humidity is maintained at 75% by the presence of a saturated ammonium sulphate solution. The screen is kept in darkness.
The screen is supplied by the Laboratoire des Insectes et Acariens des Denrees [Laboratory of the Insects and Acarids of Foodstuff] of the Institut National de Recherches Agronomiques (INRA) [National Institute of Agronomic Research] at Bordeaux, according to the AFNOR standard NF G 39-011.
The method is derived directly from the AFNOR standard NF G 39-011, with the following variations: • the experimental unit is composed of a chamber with a diameter of 8 cm which is escapeproof with regard to acarids but which allows ventilation and in which are found: • 5 g of nutrient medium (food 1/NF G 39-011 appendix) • 5 g of test powder, carpeting the bottom of the chamber • the study is carried out by placing 50 acarids in these devices • 4 repetitions are carried out on the same day per experimental factor, including for the control batches composed of the same device but without the addition of the powder. The result is expressed in the form of a mean and standard deviation with regard to these 4 samples.
The monitoring consists in counting the number of living acarids after the time period of 6 weeks. As direct counting is rendered impossible by the structure of the substrate, extraction by heat according to the recommendations of the AFNOR standard NF G 39-011 is used.
The criterion of effectiveness of an additive is then defined as the coefficient of regulation of the population of acarids (CP), i.e.:
The population counts are all carried out at 6 weeks.

Q: What does the source list for `[S-2].[Zn+2]` [ZnS 1, ZnS]?
A: Number of living acarids after 4 weeks, Mean (dust mites [1]; 160 mg/m^2, 4 weeks incubation): 148; CP 4 weeks, Mean (dust mites [1]; 160 mg/m^2, 4 weeks, versus untreated carpet): 42; Number of living acarids after 6 weeks, Mean (dust mites [1]; 160 mg/m^2, 6 weeks incubation): 284; CP 6 weeks, Mean (dust mites [1]; 160 mg/m^2, 6 weeks, versus untreated carpet): 69; CP 4 weeks, Mean (dust mites [2]; 10 mg/m^2, 4 weeks): 6; CP 6 weeks, Mean (dust mites [2]; 10 mg/m^2, 6 weeks): 6; Number of living acarids after 6 weeks, Mean (dust mites [2]; 10 mg/m^2, 6 weeks): 849; Number of living acarids after 4 weeks, Mean (dust mites [2]; 10 mg/m^2, acarids placed one month after treatment, 4 weeks): 242; CP 4 weeks, Mean (dust mites [2]; 40 mg/m^2, 4 weeks): 40; Number of living acarids after 4 weeks, Mean (dust mites [2]; 40 mg/m^2, 4 weeks): 154; CP 6 weeks, Mean (dust mites [2]; 40 mg/m^2, 6 weeks): 60; Number of living acarids after 6 weeks, Mean (dust mites [2]; 40 mg/m^2, 6 weeks): 361; CP 4 weeks, Mean (dust mites [2]; 80 mg/m^2, 4 weeks): 45; Number of living acarids after 4 weeks, Mean (dust mites [2]; 80 mg/m^2, 4 weeks): 142; CP 6 weeks, Mean (dust mites [2]; 80 mg/m^2, 6 weeks): 65; Number of living acarids after 6 weeks, Mean (dust mites [2]; 80 mg/m^2, 6 weeks): 315; CP 4 weeks, Mean (dust mites [2]; 160 mg/m^2, 4 weeks): 52; Number of living acarids after 4 weeks, Mean (dust mites [2]; 160 mg/m^2, 4 weeks): 123; CP 6 weeks, Mean (dust mites [2]; 160 mg/m^2, 6 weeks): 68; Number of living acarids after 6 weeks, Mean (dust mites [2]; 160 mg/m^2, 6 weeks): 290; Number of living acarids after 6 weeks, Mean [3]: 318; CP (coefficient of regulation of the population of acarids), Mean [3]: 63

Q: What does the source list for `[S-2].[Zn+2]` [ZnS 2, ZnS]?
A: Number of living acarids after 6 weeks, Mean [3]: 305; CP (coefficient of regulation of the population of acarids), Mean [3]: 65
